Source: patent publication US5077277A, “Chemical derivatives of antibiotics LL-E19020 alpha and beta” (American Cyanamid Company, priority 1989, dated 1991)

How the values were obtained:
Format in all cases: cell-based
Conditions in all cases: 18 hours incubation
[1] = test system: Streptococcus b-hemolyticus C 203; assay: In vitro antibacterial activity, standard agar dilution (MIC)
[2] = test system: Streptococcus b-hemolyticus VGH 84-60; assay: as above
[3] = test system: Streptococcus b-hemolyticus VGH 0.5; assay: as above
[4] = test system: Streptococcus b-hemolyticus VGH 84-62; assay: as above
[5] = test system: Streptococcus pneumoniae SV-1; assay: as above
[6] = test system: Streptococcus pneumoniae K 84-21; assay: as above
[7] = test system: Bacteroides vulgaris ATCC 29327; assay: as above
[8] = test system: Clostridium perfringens ATCC 13124
[9] = test system: Clostridium difficile ATCC 17858; assay: In vitro antibacterial activity, standard agar dilution (MIC)
[10] = test system: Peptococcus magnus ATCC 29328; assay: as above
[11] = test system: Peptococcus magnus ATCC 14956; assay: as above
[12] = test system: Peptococcus asaccharolyticus ATCC 29743; assay: as above

| Compound | Minimal Inhibitory Concentration [1] | Minimal Inhibitory Concentration [2] | Minimal Inhibitory Concentration [3] | Minimal Inhibitory Concentration [4] | Minimal Inhibitory Concentration [5] | Minimal Inhibitory Concentration [6] | Minimal Inhibitory Concentration [7] | Minimal Inhibitory Concentration [8] | Minimal Inhibitory Concentration [9] | Minimal Inhibitory Concentration [10] | Minimal Inhibitory Concentration [11] | Minimal Inhibitory Concentration [12] |
| --- | --- | --- | --- | --- | --- | --- | --- | --- | --- | --- | --- | --- |
| C/C=C\C=C\C1OC(O)(C(CNC(=O)Cc2ccccc2)C(=O)NC/C=C/C=C(\C)C(OC)C(C)C2CC(O)C(/C=C/C=C/C=C/C(=O)O)O2)C(O)C(O)C1(C)C (stereo not drawn) [Compound I, Ammonolysis Product of LL-E19020 α and β] | 8 µg/mL | 4 µg/mL | 16 µg/mL | 16 µg/mL | 64 µg/mL | > 128 µg/mL | 128 µg/mL | > 128 µg/mL | 4 µg/mL | 0.25 µg/mL | ≤ 0.06 µg/mL | 0.25 µg/mL |
| Aglycone Methyl Ester of LL-E19020β [Compound VI] | > 128 µg/mL | > 128 µg/mL | > 128 µg/mL | > 128 µg/mL | > 128 µg/mL | > 128 µg/mL | > 128 µg/mL | > 128 µg/mL |  | 0.5 µg/mL | 0.5 µg/mL | 0.5 µg/mL |
| Methyl Ester of LL-E19020α [Compound II] | 0.12 µg/mL | 0.5 µg/mL | 2 µg/mL | 2 µg/mL | 4 µg/mL | 8 µg/mL | 128 µg/mL | 64 µg/mL | 2 µg/mL | ≤ 0.06 µg/mL | ≤ 0.06 µg/mL | ≤ 0.06 µg/mL |
| Methyl Ester of LL-E19020β [Compound III] | 2 µg/mL | 2 µg/mL | 8 µg/mL | 8 µg/mL | 8 µg/mL | 32 µg/mL | 16 µg/mL | > 128 µg/mL | 8 µg/mL | ≤ 0.06 µg/mL | ≤ 0.06 µg/mL | ≤ 0.06 µg/mL |
| Monosaccharide of Methyl Ester of LL-E19020α [Compound IV] | 4 µg/mL | 2 µg/mL | 8 µg/mL | 8 µg/mL | 16 µg/mL | 16 µg/mL | > 128 µg/mL | > 128 µg/mL | 8 µg/mL | ≤ 0.06 µg/mL | ≤ 0.06 µg/mL | ≤ 0.06 µg/mL |
| Monosaccharide of Methyl Ester of LL-E19020β [Compound V] | 8 µg/mL | 8 µg/mL | 32 µg/mL | 32 µg/mL | 32 µg/mL | 64 µg/mL | > 128 µg/mL | > 128 µg/mL | 64 µg/mL | ≤ 0.06 µg/mL | ≤ 0.06 µg/mL | ≤ 0.06 µg/mL |
